This experiment deals with PC3 cells. Description: NAMPT Cell Proliferation Assay. In kind it is cell-based. Particulars: Homo sapiens, PC-3, 120 h, 5 days incubation, cell viability by Cell Titer Glo. An outline of the steps:
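Seeded at 500 cells/well in RPMI with 10% heat-inactivated FBS and left to attach overnight at 37° C, 5% CO2. Compounds were added as 10-fold dilutions […] for 5 days, then viability was read by CellTiter-Glo. IC50s came from sigmoidal fits of percent inhibition.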
On the technique in general: In ATP-based viability assays light output follows the ATP content of the culture.

In patent US20130303509A1, “NAMPT INHIBITORS” (AbbVie Inc., priority 2012, published 2013) one finds IC50 data, which are given here for 33 compounds.

Structures are written as SMILES.

For the compound `O=C(Nc1ccc(OC2CCN(C(=O)CC(F)(F)F)CC2)cc1)C1CN(c2cccnn2)C1` [Example 252, 1-(pyridazin-3-yl)-N-(4-{[1-(3,3,3-trifluoropropanoyl)piperidin-4-yl]oxy}phenyl)azetidine-3-carboxamide], the IC50 (in general, the midpoint of a concentration-inhibition curve) is 9.51 nM.

`CC(C)C(=O)N1CCC(Oc2ccc(NC(=O)C3CN(c4cccnn4)C3)cc2)CC1` [Example 253, N-(4-{[1-(2-methylpropanoyl)piperidin-4-yl]oxy}phenyl)-1-(pyridazin-3-yl)azetidine-3-carboxamide] yielded an IC50 of 8.09 nM.

Take `CC(C)(C)CC(=O)N1CC(Oc2ccc(NC(=O)C3CN(c4ccnnc4)C3)cc2)C1` [Example 254, N-(4-{[1-(3,3-dimethylbutanoyl)azetidin-3-yl]oxy}phenyl)-1-(pyridazin-4-yl)azetidine-3-carboxamide]: the midpoint of inhibition, the IC50, lay at 12 nM.

`O=C(Nc1ccc(OC2CN(C(=O)C3CCCCC3)C2)cc1)C1CN(c2ccnnc2)C1` [Example 255, N-(4-{[1-(cyclohexylcarbonyl)azetidin-3-yl]oxy}phenyl)-1-(pyridazin-4-yl)azetidine-3-carboxamide] yielded an IC50 of 24.1 nM.

In turn, `O=C(Nc1ccc(OC2CN(C(=O)CC3CCOCC3)C2)cc1)C1CN(c2ccnnc2)C1` [Example 256, 1-(pyridazin-4-yl)-N-(4-{[1-(tetrahydro-2H-pyran-4-ylacetyl)azetidin-3-yl]oxy}phenyl)azetidine-3-carboxamide] registered an IC50 of 145 nM.

As to `CC1CC1C(=O)N1CC(Oc2ccc(NC(=O)C3CN(c4ccnnc4)C3)cc2)C1` (stereo not drawn) [Example 257, N-[4-({1-[(2-methylcyclopropyl)carbonyl]azetidin-3-yl}oxy)phenyl]-1-(pyridazin-4-yl)azetidine-3-carboxamide], half-maximal inhibition (IC50) required 76.1 nM. This IC50 is about 1.9-fold lower than that of the compound before.

As for `O=C(Nc1ccc(OC2CN(C(=O)CC(F)(F)F)C2)cc1)C1CN(c2ccnnc2)C1` [Example 258, 1-(pyridazin-4-yl)-N-(4-{[1-(3,3,3-trifluoropropanoyl)azetidin-3-yl]oxy}phenyl)azetidine-3-carboxamide], the IC50 was found to be 309 nM.

As for `O=C(Nc1ccc(OC2CN(C(=O)C3CCCC3)C2)cc1)C1CN(c2ccnnc2)C1` [Example 259, N-(4-{[1-(cyclopentylcarbonyl)azetidin-3-yl]oxy}phenyl)-1-(pyridazin-4-yl)azetidine-3-carboxamide], the midpoint of inhibition, the IC50, lay at 72.6 nM.

For `CC(C)(C)CC(=O)N1CCC(Oc2ccc(NC(=O)C3CN(c4ccnnc4)C3)cc2)CC1` [Example 260, N-(4-{[1-(3,3-dimethylbutanoyl)piperidin-4-yl]oxy}phenyl)-1-(pyridazin-4-yl)azetidine-3-carboxamide], the IC50 amounted to 74.6 nM.

Regarding `O=C(Nc1ccc(OC2CN(C(=O)C3CCC3)C2)cc1)C1CN(c2ccnnc2)C1` [Example 261, N-(4-{[1-(cyclobutylcarbonyl)azetidin-3-yl]oxy}phenyl)-1-(pyridazin-4-yl)azetidine-3-carboxamide], the IC50 is 71.5 nM.

`O=C(Nc1ccc(OC2CN(C(=O)C3CCCO3)C2)cc1)C1CN(c2ccnnc2)C1` (stereo not drawn) [Example 262, 1-(pyridazin-4-yl)-N-(4-{[1-(tetrahydrofuran-2-ylcarbonyl)azetidin-3-yl]oxy}phenyl)azetidine-3-carboxamide]: the IC50 stood at 119 nM. This IC50 is about 1.7-fold higher than that of the compound before.

On to `CC(C)CCC(=O)N1CC(Oc2ccc(NC(=O)C3CN(c4ccnnc4)C3)cc2)C1` [Example 263, N-(4-{[1-(4-methylpentanoyl)azetidin-3-yl]oxy}phenyl)-1-(pyridazin-4-yl)azetidine-3-carboxamide], for which inhibition was half-maximal at 59.5 nM (IC50).

The compound `CC(C)C(=O)N1CC(Oc2ccc(NC(=O)C3CN(c4ccnnc4)C3)cc2)C1` [Example 264, N-(4-{[1-(2-methylpropanoyl)azetidin-3-yl]oxy}phenyl)-1-(pyridazin-4-yl)azetidine-3-carboxamide] yielded an IC50 of 100 nM.

Regarding `CC[C@H](C)C(=O)N1CC(Oc2ccc(NC(=O)C3CN(c4ccnnc4)C3)cc2)C1` [Example 265, N-[4-({1-[(2S)-2-methylbutanoyl]azetidin-3-yl}oxy)phenyl]-1-(pyridazin-4-yl)azetidine-3-carboxamide], inhibition was half-maximal at 70.1 nM (IC50).

The compound `CC(C)CC(=O)N1CCC(Oc2ccc(NC(=O)C3CN(c4ccnnc4)C3)cc2)CC1` [Example 266, N-(4-{[1-(3-methylbutanoyl)piperidin-4-yl]oxy}phenyl)-1-(pyridazin-4-yl)azetidine-3-carboxamide] had an IC50 of 83 nM.

Take `COCC(=O)N1CCC(Oc2ccc(NC(=O)C3CN(c4ccnnc4)C3)cc2)CC1` [Example 267, N-(4-{[1-(methoxyacetyl)piperidin-4-yl]oxy}phenyl)-1-(pyridazin-4-yl)azetidine-3-carboxamide]: the IC50 turned out to be 622 nM. This IC50 lies about 7.5-fold higher than the previous one.

In the case of `O=C(Nc1ccc(OC2CCN(C(=O)CC(F)(F)F)CC2)cc1)C1CN(c2ccnnc2)C1` [Example 268, 1-(pyridazin-4-yl)-N-(4-{[1-(3,3,3-trifluoropropanoyl)piperidin-4-yl]oxy}phenyl)azetidine-3-carboxamide], the IC50 worked out at 82.9 nM.

Compound `O=C(Nc1ccc(OC2CCN(C(=O)C(F)(F)c3ccccc3)CC2)cc1)C1CN(c2ccnnc2)C1` [Example 269, N-[4-({1-[difluoro(phenyl)acetyl]piperidin-4-yl}oxy)phenyl]-1-(pyridazin-4-yl)azetidine-3-carboxamide] showed an IC50 of 60.4 nM.

In turn, `O=C(Nc1ccc(OC2CCN(C(=O)C3CCC(F)(F)CC3)CC2)cc1)C1CN(c2ccnnc2)C1` [Example 270, N-[4-({1-[(4,4-difluorocyclohexyl)carbonyl]piperidin-4-yl}oxy)phenyl]-1-(pyridazin-4-yl)azetidine-3-carboxamide] had an IC50 of 62.7 nM.

In the case of `O=C(Nc1ccc(OC2CCN(C(=O)c3ccc(F)cc3)CC2)cc1)C1CN(c2ccnnc2)C1` [Example 271, N-(4-{[1-(4-fluorobenzoyl)piperidin-4-yl]oxy}phenyl)-1-(pyridazin-4-yl)azetidine-3-carboxamide], the IC50 came out at 51.5 nM.

For the compound `O=C(Nc1ccc(OC2CCN(C(=O)c3cscn3)CC2)cc1)C1CN(c2ccnnc2)C1` [Example 272, 1-(pyridazin-4-yl)-N-(4-{[1-(1,3-thiazol-4-ylcarbonyl)piperidin-4-yl]oxy}phenyl)azetidine-3-carboxamide], 79.5 nM corresponded to half-maximal inhibition (IC50). This IC50 lies about 1.5-fold higher than the previous one.

Compound `O=C(Nc1ccc(OC2CCN(C(=O)Cc3ccc(C(F)(F)F)cc3)CC2)cc1)C1CN(c2ccnnc2)C1` [Example 273, 1-(pyridazin-4-yl)-N-{4-[(1-{[4-(trifluoromethyl)phenyl]acetyl}piperidin-4-yl)oxy]phenyl}azetidine-3-carboxamide] displayed an IC50 of 634 nM.

`O=C(Nc1ccc(OC2CCN(C(=O)c3ccc(F)c(F)c3)CC2)cc1)C1CN(c2ccnnc2)C1` [Example 274, N-(4-{[1-(3,4-difluorobenzoyl)piperidin-4-yl]oxy}phenyl)-1-(pyridazin-4-yl)azetidine-3-carboxamide]: half-maximal inhibition (IC50) was put at 107 nM.

The compound `O=C(Nc1ccc(OC2CCN(C(=O)Cc3ccc(OC(F)(F)F)cc3)CC2)cc1)C1CN(c2ccnnc2)C1` [Example 275, 1-(pyridazin-4-yl)-N-{4-[(1-{[4-(trifluoromethoxy)phenyl]acetyl}piperidin-4-yl)oxy]phenyl}azetidine-3-carboxamide] had an IC50 of 683 nM. Compared with the last compound, the IC50 is about 6.4-fold higher.

`O=C(Nc1ccc(OC2CCN(C(=O)Cc3ccc(F)cc3)CC2)cc1)C1CN(c2ccnnc2)C1` [Example 276, N-[4-({1-[(4-fluorophenyl)acetyl]piperidin-4-yl}oxy)phenyl]-1-(pyridazin-4-yl)azetidine-3-carboxamide] showed an IC50 of 130 nM.

For the compound `O=C(Nc1ccc(OC2CCN(C(=O)Cc3ccc(F)cc3F)CC2)cc1)C1CN(c2ccnnc2)C1` [Example 277, N-[4-({1-[(2,4-difluorophenyl)acetyl]piperidin-4-yl}oxy)phenyl]-1-(pyridazin-4-yl)azetidine-3-carboxamide], the concentration for half-maximal inhibition (IC50) worked out at 73.1 nM.

`O=C(Nc1ccc(OC2CCN(C(=O)c3ccsc3)CC2)cc1)C1CN(c2ccnnc2)C1` [Example 278, 1-(pyridazin-4-yl)-N-(4-{[1-(thiophen-3-ylcarbonyl)piperidin-4-yl]oxy}phenyl)azetidine-3-carboxamide] yielded an IC50 of 79.1 nM. This IC50 and that of the compound before are within 1.5-fold of each other.

Regarding `O=C(Nc1ccc(OC2CCN(C(=O)c3ccccc3Cl)CC2)cc1)C1CN(c2ccnnc2)C1` [Example 279, N-(4-{[1-(2-chlorobenzoyl)piperidin-4-yl]oxy}phenyl)-1-(pyridazin-4-yl)azetidine-3-carboxamide], the IC50 came out at 9.72 nM. This IC50 is about 8.1-fold lower than that of the compound before.

Compound `CC(C)(C)C(=O)N1CCC(Oc2ccc(NC(=O)C3CN(c4ccnnc4)C3)cc2)CC1` [Example 280, N-(4-{[1-(2,2-dimethylpropanoyl)piperidin-4-yl]oxy}phenyl)-1-(pyridazin-4-yl)azetidine-3-carboxamide] came in with an IC50 of 71.9 nM.

`CC(C)(C(=O)N1CCC(Oc2ccc(NC(=O)C3CN(c4ccnnc4)C3)cc2)CC1)c1ccccc1` [Example 281, N-(4-{[1-(2-methyl-2-phenylpropanoyl)piperidin-4-yl]oxy}phenyl)-1-(pyridazin-4-yl)azetidine-3-carboxamide] showed an IC50 of 16.9 nM.

In the case of `CC(=O)N1CCC(Oc2ccc(NC(=O)C3CN(c4ccnnc4)C3)cc2)CC1` [Example 282, N-{4-[(1-acetylpiperidin-4-yl)oxy]phenyl}-1-(pyridazin-4-yl)azetidine-3-carboxamide], the IC50 amounted to 629 nM.

`O=C(Nc1ccc(OC2CCN(C(=O)c3nccs3)CC2)cc1)C1CN(c2ccnnc2)C1` [Example 283, 1-(pyridazin-4-yl)-N-(4-{[1-(1,3-thiazol-2-ylcarbonyl)piperidin-4-yl]oxy}phenyl)azetidine-3-carboxamide] came in with an IC50 of 72.5 nM.

For `O=C(Nc1ccc(OC2CCN(C(=O)c3ccc(F)cc3F)CC2)cc1)C1CN(c2ccnnc2)C1` [Example 284, N-(4-{[1-(2,4-difluorobenzoyl)piperidin-4-yl]oxy}phenyl)-1-(pyridazin-4-yl)azetidine-3-carboxamide], 66.6 nM corresponded to half-maximal inhibition (IC50).
